The conditions of series [1]: background statement on the known drug; cited from earlier work.
The nature of series [2]: Thermodynamic solubility test. The settings on record: buffer solution, aqueous buffer, thermodynamic from solid; positive compound. The series is classed as physicochemical. The method in brief: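 Samples sonicated 10 min, shaken 8 h at room temperature, re-sonicated and centrifuged at 13000 rpm for 15 min. Supernatant recentrifuged and analysed by LC-MS, with concentrations quantified against a 3–5 point calibration curve.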

The nature of series [3]: Plasma and ocular tissue distribution after single ocular administration in Dutch Belted rabbits (Example 6). The series is classed as in vivo. The settings on record: single eye drop 1 mg/mL (0.05 mg/eye, 50 µL/eye), 0.5, 4 or 8 hours. The text has this: Detection of Plasma and Ocular Tissue Distribution of Compounds after Single Ocular Administration in Dutch Belted Rabbits
Age-related macular degeneration and diabetic retinopathy are associated with neovascularization in the posterior segment of the eye. A major problem with topical eye drops for treating posterior segment disorders is the inefficient delivery of the agent to the posterior segment sites due to the corneal and conjunctival barriers. Therefore, it is important to measure the distribution of compounds from ocular formulations in several major ocular tissues. […] This experiment used Dutch Belted rabbits. […]
Male Dutch Belted rabbits used in this experiment were purchased from Pizhou Dongfang Breeding Co., Ltd., with animal weights ranging from 1.5 to 2.5 kg. […] All prepared dosing formulations were freshly prepared on the day of administration, sampled, and the actual concentration of the dosing formulation was determined.
On the day of the experiment, animals were administered 1 mg/mL (0.05 mg/eye, 50 µL/eye). […] The concentrations of each analyte in rabbit ocular tissues and plasma obtained in this experiment were determined using an LC-MS/MS analytical method. […] BLOQ (Below the Limit of Quantification) is the lowest analyte concentration that can be quantified with acceptable precision and accuracy. […]

In general, solubility refers to the dissolved amount per volume that the medium holds. Usually thermodynamic solubility stands for the concentration in solution at equilibrium with solid.

“Also recorded” adds a separate entry of the source.

Take `CNC(=O)c1ccccc1Sc1ccc2c(/C=C/c3ccccn3)n[nH]c2c1` [Axitinib]: the solubility in series [1] is recorded as less than 2 µg/mL. For the same compound, the solubility (thermodynamic) at 8 h in series [2] is less than 2 µg/mL. For the same compound, the “drug concentration in retina” value in series [3] is reported as “below the lower limit of quantification; also recorded: below BLOQ”.

The values are drawn from patent EP4781984A1 (Beyang Therapeutics Co., Ltd., priority 2023, dated 2025).
